# Measured values taken from patent US20260085062A1, “NOVEL COMPOUNDS AS CK2 INHIBITORS” (Cambridge Enterprise Limited, priority 2022, published 2026).
# Tests used:
# [1] = molecular target: T1, CK2α (Homo sapiens, UniProt P68400); test: Biochemical assay for inhibitors of CK2α kinase activity (ADP-Glo); conditions: 0.2 nM CK2α, 50 μM peptide substrate, 15 μM ATP, read-out: Assay 1: CK2α Enzyme IC50
# T1 construct: CK2α (residues 2-329) was produced in Escherichia coli BL21 (DE3) for kinase activity screening; His6 (N, cleaved yes); made in house; host or cells: Escherichia coli BL21 (DE3)
# T1 sequence (P68400 2-329): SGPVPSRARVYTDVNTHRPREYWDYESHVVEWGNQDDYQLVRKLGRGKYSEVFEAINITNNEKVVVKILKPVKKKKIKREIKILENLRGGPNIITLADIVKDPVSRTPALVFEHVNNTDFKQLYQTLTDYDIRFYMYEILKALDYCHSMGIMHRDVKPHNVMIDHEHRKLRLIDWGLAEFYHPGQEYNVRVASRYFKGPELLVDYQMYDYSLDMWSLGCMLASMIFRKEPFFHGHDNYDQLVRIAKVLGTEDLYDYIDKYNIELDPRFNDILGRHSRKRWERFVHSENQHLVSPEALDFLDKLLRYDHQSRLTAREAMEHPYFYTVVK
# [2] = molecular target: T2, CLK2 (Homo sapiens, UniProt P49760); test: Biochemical assay for inhibitors of CLK2 kinase activity (ADP-Glo); conditions: 20 nM CLK2, 50 μM peptide substrate, 100 μM ATP, read-out: Assay 2: CLK2 Enzyme IC50
# T2 construct: purchased Carna Biosciences 04-127
# T2 sequence (P49760 whole entry): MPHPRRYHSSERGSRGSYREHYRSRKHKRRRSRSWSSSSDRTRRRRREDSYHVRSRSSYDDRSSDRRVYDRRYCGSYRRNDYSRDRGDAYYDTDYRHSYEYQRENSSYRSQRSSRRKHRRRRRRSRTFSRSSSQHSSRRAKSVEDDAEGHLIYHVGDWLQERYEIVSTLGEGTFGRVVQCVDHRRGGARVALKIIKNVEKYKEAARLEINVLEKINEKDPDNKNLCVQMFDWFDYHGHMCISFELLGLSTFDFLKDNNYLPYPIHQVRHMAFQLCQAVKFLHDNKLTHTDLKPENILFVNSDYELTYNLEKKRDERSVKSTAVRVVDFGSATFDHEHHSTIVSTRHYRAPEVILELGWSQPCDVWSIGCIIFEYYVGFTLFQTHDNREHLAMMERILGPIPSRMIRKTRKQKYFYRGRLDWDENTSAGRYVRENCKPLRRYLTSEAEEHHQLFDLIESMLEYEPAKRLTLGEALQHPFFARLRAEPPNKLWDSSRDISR
# [3] = molecular target: T3, intracellular CK2α (Homo sapiens, UniProt P19784); test: Cell-based NanoBRET assay for inhibitor binding to intracellular CK2α; conditions: HCT116 cells transiently transfected with CSNK2A2-NanoLuc fusion vector; Tracer K-5; 2 h; read-out: Assay 3: NanoBRET ™ assay for binding to intracellular CK2α
# T3 construct: host or cells: HCT116 (ATCC CCL-247)
# T3 sequence (P19784 whole entry, the tested form may be a part): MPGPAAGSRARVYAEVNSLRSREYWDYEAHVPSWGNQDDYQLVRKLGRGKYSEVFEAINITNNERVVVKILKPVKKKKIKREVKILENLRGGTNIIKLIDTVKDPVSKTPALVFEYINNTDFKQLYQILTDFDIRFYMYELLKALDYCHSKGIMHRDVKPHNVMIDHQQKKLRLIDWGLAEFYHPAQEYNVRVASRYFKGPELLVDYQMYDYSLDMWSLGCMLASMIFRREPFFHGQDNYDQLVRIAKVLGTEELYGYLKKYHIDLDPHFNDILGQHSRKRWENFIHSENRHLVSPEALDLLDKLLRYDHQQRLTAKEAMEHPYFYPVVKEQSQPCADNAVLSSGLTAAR
# Procedure, shortened: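 Apparent affinity came from BRET ratio (acceptor/donor ×1,000), with donor read at 450 nm and acceptor at 610 or 630 nm. Compounds competed off a tracer added at fixed concentration to cells carrying a NanoLuc-CK2α fusion.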
SMILES,IC50 [1] [nM],IC50 [2] [nM],IC50 [3] [nM]
"O=C(CCNCc1ccc(OC(F)(F)F)c(Cl)c1)NCCCNc1cc(-c2cn[nH]c(=O)c2)cc2[nH]ncc12 [Example 168, 3-((3-chloro-4-(trifluoromethoxy)benzyl)amino)-N-(3-((6-(6-oxo-1,6-dihydropyridazin-4-yl)-1H-indazol-4-yl)amino)propyl)propanamide]",0.64,81.2,208
"O=C(CCNCc1ccc(OC(F)(F)F)c(Cl)c1)NCCCNc1cc(-c2ccncc2Cl)cc2[nH]ncc12 [Example 169, 3-((3-chloro-4-(trifluoromethoxy)benzyl)amino)-N-(3-((6-(3-chloropyridin-4-yl)-1H-indazol-4-yl)amino)propyl)propanamide]",79.2,5680,6510
"Fc1cc(CNCCCCOCCNCc2cc(-n3cnnc3)cc3[nH]ncc23)cc(F)c1OC(F)(F)F [Example 171, 4-(2-(((6-(4H-1,2,4-triazol-4-yl)-1H-indazol-4-yl)methyl)amino)ethoxy)-N-(3,5-difluoro-4-(trifluoromethoxy)benzyl)butan-1-amine]",45.3,23300,4900
"O=C(CCNCc1ccc(OC(F)(F)F)c(Cl)c1)NCCCNCc1cc(-n2cnnc2)cc2[nH]ncc12 [Example 172, N-(3-(((6-(4H-1,2,4-triazol-4-yl)-1H-indazol-4-yl)methyl)amino)propyl)-3-((3-chloro-4-(trifluoromethoxy)benzyl)amino)propanamide]",126,44600,> 50000
"Fc1cc(CNCCCCOCCNc2cc(-c3ccncc3)c(F)c3[nH]ncc23)cc(F)c1OC(F)(F)F [Example 176, N-(2-(4-((3,5-difluoro-4-(trifluoromethoxy)benzyl)amino)butoxy)ethyl)-7-fluoro-6-(pyridin-4-yl)-1H-indazol-4-amine]",5.99,332,217
"N#Cc1nncn1-c1cc(NCCCNC(=O)CCNCc2ccc(OC(F)(F)F)c(Cl)c2)c2cn[nH]c2c1 [Example 177, 3-((3-chloro-4-(trifluoromethoxy)benzyl)amino)-N-(3-((6-(3-cyano-4H-1,2,4-triazol-4-yl)-1H-indazol-4-yl)amino)propyl)propanamide]",56.2,1250,11700
"Cc1c(-c2ccncc2)cc(NCCCNC(=O)CCNCc2ccc(OC(F)(F)F)c(Cl)c2)c2cn[nH]c12 [Example 178, 3-((3-chloro-4-(trifluoromethoxy)benzyl)amino)-N-(3-((7-methyl-6-(pyridin-4-yl)-1H-indazol-4-yl)amino)propyl)propanamide]",23.9,1500,2540
"Cc1c(-c2ccncc2)cc(NCCOCCCCNCc2cc(F)c(OC(F)(F)F)c(F)c2)c2cn[nH]c12 [Example 179, N-(2-(4-((3,5-difluoro-4-(trifluoromethoxy)benzyl)amino)butoxy)ethyl)-7-methyl-6-(pyridin-4-yl)-1H-indazol-4-amine]",42.7,1930,1450
"O=C(CCNCc1ccc(OC(F)(F)F)c(Cl)c1)NCCCNc1cc(-c2ccncc2)c(F)c2[nH]ncc12 [Example 180, 3-((3-chloro-4-(trifluoromethoxy)benzyl)amino)-N-(3-((7-fluoro-6-(pyridin-4-yl)-1H-indazol-4-yl)amino)propyl)propanamide]",3.68,190,100
"O=C(CCNCc1ccc(OC(F)(F)F)c(Cl)c1)NCCCNc1cc(-n2cnnc2)c(Cl)c2[nH]ncc12 [Example 181, 3-((3-chloro-4-(trifluoromethoxy)benzyl)amino)-N-(3-((7-chloro-6-(4H-1,2,4-triazol-4-yl)-1H-indazol-4-yl)amino)propyl)propanamide]",17,448,11400
"Fc1cc(CNCCCCOCCNc2cc(-n3cnnc3)c(Cl)c3[nH]ncc23)cc(F)c1OC(F)(F)F [Example 182, 7-chloro-N-(2-(4-((3,5-difluoro-4-(trifluoromethoxy)benzyl)amino)butoxy)ethyl)-6-(4H-1,2,4-triazol-4-yl)-1H-indazol-4-amine]",29.6,1820,5410
"Nc1cc(-c2cc(NCCCNC(=O)CCNCc3ccc(OC(F)(F)F)c(Cl)c3)c3cn[nH]c3c2)ccn1 [Example 184, N-(3-((6-(2-aminopyridin-4-yl)-1H-indazol-4-yl)amino)propyl)-3-((3-chloro-4-(trifluoromethoxy)benzyl)amino)propanamide]",0.94,17,177
"O=C(CCNCc1ccc(OC(F)(F)F)c(Cl)c1)NCCCNc1cc(-c2ccncc2)nc2[nH]ncc12 [Example 185, 3-((3-chloro-4-(trifluoromethoxy)benzyl)amino)-N-(3-((6-(pyridin-4-yl)-1H-pyrazolo[3,4-b]pyridin-4-yl)amino)propyl)propanamide]",0.76,787,106
"Fc1cc(CNCCCCOCCNc2c(Cl)c(-n3cnnc3)cc3[nH]ncc23)cc(F)c1OC(F)(F)F [Example 186, 5-chloro-N-(2-(4-((3,5-difluoro-4-(trifluoromethoxy)benzyl)amino)butoxy)ethyl)-6-(4H-1,2,4-triazol-4-yl)-1H-indazol-4-amine]",717,4750,> 48900
"CNc1n[nH]c2cc(-n3cnnc3)cc(NCCOCCCCNCc3cc(F)c(OC(F)(F)F)c(F)c3)c12 [Example 190, N4-(2-(4-((3,5-difluoro-4-(trifluoromethoxy)benzyl)amino)butoxy)ethyl)-N3-methyl-6-(4H-1,2,4-triazol-4-yl)-1H-indazole-3,4-diamine]",1.45,1100,74

# Other lines, results leading:
IC50 [1] [nM],IC50 [2] [nM],IC50 [3] [nM],SMILES
6.64,6390,> 50000,"O=C(CCNCc1ccc(OC(F)(F)F)c(Cl)c1)NCCCNc1cc(-c2cc[nH]c(=O)n2)cc2[nH]ncc12 [Example 170, 3-((3-chloro-4-(trifluoromethoxy)benzyl)amino)-N-(3-((6-(2-oxo-1,2-dihydropyrimidin-4-yl)-1H-indazol-4-yl)amino)propyl)propanamide]"
1.17,3170,361,"O=C(CCNCc1ccc(OC(F)(F)F)c(Cl)c1)NCCCNc1cc(-c2ncno2)cc2[nH]ncc12 [Example 173, N-(3-((6-(1,2,4-oxadiazol-5-yl)-1H-indazol-4-yl)amino)propyl)-3-((3-chloro-4-(trifluoromethoxy)benzyl)amino)propanamide]"
7.41,5980,4640,"O=C(CCNCc1ccc(OC(F)(F)F)c(Cl)c1)NCCCNc1cc(-c2nnc[nH]2)cc2[nH]ncc12 [Example 174, N-(3-((6-(4H-1,2,4-triazol-3-yl)-1H-indazol-4-yl)amino)propyl)-3-((3-chloro-4-(trifluoromethoxy)benzyl)amino)propanamide]"
10.7,1910,1240,"O=C(CCNCc1ccc(OC(F)(F)F)c(Cl)c1)NCCCNc1cc(-c2cocn2)cc2[nH]ncc12 [Example 175, 3-((3-chloro-4-(trifluoromethoxy)benzyl)amino)-N-(3-((6-(oxazol-4-yl)-1H-indazol-4-yl)amino)propyl)propanamide]"
2.39,907,145,"O=C(CCNCc1ccc(OC(F)(F)F)c(Cl)c1)NCCCNc1cc(-c2ncns2)cc2[nH]ncc12 [Example 183, N-(3-((6-(1,2,4-thiadiazol-5-yl)-1H-indazol-4-yl)amino)propyl)-3-((3-chloro-4-(trifluoromethoxy)benzyl)amino)propanamide]"
8.62,4680,949,"N#Cc1cc(-c2cc(NCCCNC(=O)CCNCc3ccc(OC(F)(F)F)c(Cl)c3)c3cn[nH]c3c2)cnn1 [Example 187, 3-((3-chloro-4-(trifluoromethoxy)benzyl)amino)-N-(3-((6-(6-cyanopyridazin-4-yl)-1H-indazol-4-yl)amino)propyl)propanamide]"
0.5,52.9,516,"Nc1cc(-c2cc(NCCCNC(=O)CCNCc3ccc(OC(F)(F)F)c(Cl)c3)c3cn[nH]c3c2)cnn1 [Example 188, N-(3-((6-(6-aminopyridazin-4-yl)-1H-indazol-4-yl)amino)propyl)-3-((3-chloro-4-(trifluoromethoxy)benzyl)amino)propanamide]"
19.2,3500,1630,"O=C(CCNCc1ccc(OC(F)(F)F)c(Cl)c1)NCCCNc1cc(-c2ncon2)cc2[nH]ncc12 [Example 189, N-(3-((6-(1,2,4-oxadiazol-3-yl)-1H-indazol-4-yl)amino)propyl)-3-((3-chloro-4-(trifluoromethoxy)benzyl)amino)propanamide]"
